The source made the active and inactive calls.
Experiments:
[1] = target: T1, Heat shock factor protein 1 (Mus musculus, UniProt P38532); test: HSF1 potentiators in luciferase reporter cells, confirmation, cell-based, NIH3T3, luminescence, dose retest (AID 435004); assay type: functional;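 further: stress induced by proteasome inhibitor MG132 added 30 min after compound; luciferase reporter driven by HSF1 response element in NIH3T3 cells; actives raise luminescence as potentiators of the MG132 stress response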
T1 sequence (P38532 whole entry): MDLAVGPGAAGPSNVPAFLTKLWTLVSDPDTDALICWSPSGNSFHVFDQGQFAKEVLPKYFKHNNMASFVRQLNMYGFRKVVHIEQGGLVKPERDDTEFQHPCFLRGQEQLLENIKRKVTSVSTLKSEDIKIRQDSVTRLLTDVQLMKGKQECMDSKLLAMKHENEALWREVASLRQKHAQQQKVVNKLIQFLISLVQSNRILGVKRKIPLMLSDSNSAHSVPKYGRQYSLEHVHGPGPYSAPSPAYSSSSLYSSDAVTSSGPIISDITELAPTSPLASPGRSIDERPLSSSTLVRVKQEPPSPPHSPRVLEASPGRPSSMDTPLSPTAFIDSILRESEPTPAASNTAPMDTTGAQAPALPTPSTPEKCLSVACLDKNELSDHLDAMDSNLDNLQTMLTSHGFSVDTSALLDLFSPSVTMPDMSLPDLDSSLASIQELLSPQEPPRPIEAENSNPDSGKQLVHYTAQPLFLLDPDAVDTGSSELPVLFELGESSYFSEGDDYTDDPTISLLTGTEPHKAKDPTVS

[2] = inhibitors of firefly luciferase expression or activity, dose response, H4 neuroglioma cells, luminescence (AID 1990); assay type: functional, cell-based
[3] = tested on: INS1; test: beta cell apoptosis inhibitors, cytokine rescue, dose response, luminescence, retest (AID 449756); assay type: functional, cell-based; settings: Rattus norvegicus;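 further: cell death triggered by IL-1 beta plus TNF-alpha plus IFN-gamma mixture; protective hits raise ATP signal compared with cytokine alone wells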
[4] = Luminescence Cell-Based Dose Response HTS to Identify Inhibitors of 5'UTR Stem-Loop Driven Prion Protein mRNA Translation in H4 Neuroglioblastoma Cells. [Related pubchem assays: 1827 (Project Summary), 1813 (Primary HTS)]; assay type: functional
[5] = inhibitors of SNCA 5'UTR-driven reporter translation, confirmation, H4 neuroglioma cells, luminescence (AID 1988); assay type: functional, cell-based
[6] = tested on: H4; test: Luminescence Cell-Based Dose Response HTS to Identify Activators of 5'UTR Stem-Loop Driven Prion Protein mRNA Translation in H4 Neuroglioblastoma Cells. [Related pubchem assays: 1829 (Project Summary), 1814 (Primary HTS)]; assay type: functional; settings: Homo sapiens
[7] = cytotoxicity toward NIH3T3 fibroblasts, dose response, counter-screen, cell-based, ATP luminescence, mouse fibroblasts (AID 2010); assay type: functional;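 further: cells exposed to compound for about 90 hours before reading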
[8] = inhibitors of intracellular T. cruzi replication, confirmation, NIH3T3 host cells, beta-gal luminescence (AID 2044); assay type: functional, cell-based;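 further: intracellular parasites grown in NIH/3T3 mouse fibroblasts as host cells; luminescent beta-galactosidase reporter signal from transgenic T. cruzi replicating inside host cells; inhibitors lower the luminescence signal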
[9] = Luminescence Cell-Based Dose Retest to Confirm Inhibitors of Cancer Stem Cells. [Related pubchem assays (depositor defined):AID2717, AID2721]; assay type: functional; settings: Homo sapiens
[10] = target: Cytochrome P450 2C19 (Homo sapiens, UniProt P33261); test: Cytochrome panel assay with activity outcomes. Panel member name: p450-cyp2c19 Compounds with AC50 equal or less than 10 uM are considered active; assay type: functional; settings: read-out: AC50
[11] = target: Cytochrome P450 3A4 (Homo sapiens, UniProt P08684);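 further: CYP3A4 tested as one member of a cytochrome P450 panel screen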
[12] = target: Cytochrome P450 2C9 (Homo sapiens, UniProt P11712)
[13] = target: T2, Cytochrome P450 1A2 (Homo sapiens, UniProt P05177);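 further: PubChem cytochrome P450 panel assay, CYP1A2 panel member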
T2 sequence (P05177 whole entry): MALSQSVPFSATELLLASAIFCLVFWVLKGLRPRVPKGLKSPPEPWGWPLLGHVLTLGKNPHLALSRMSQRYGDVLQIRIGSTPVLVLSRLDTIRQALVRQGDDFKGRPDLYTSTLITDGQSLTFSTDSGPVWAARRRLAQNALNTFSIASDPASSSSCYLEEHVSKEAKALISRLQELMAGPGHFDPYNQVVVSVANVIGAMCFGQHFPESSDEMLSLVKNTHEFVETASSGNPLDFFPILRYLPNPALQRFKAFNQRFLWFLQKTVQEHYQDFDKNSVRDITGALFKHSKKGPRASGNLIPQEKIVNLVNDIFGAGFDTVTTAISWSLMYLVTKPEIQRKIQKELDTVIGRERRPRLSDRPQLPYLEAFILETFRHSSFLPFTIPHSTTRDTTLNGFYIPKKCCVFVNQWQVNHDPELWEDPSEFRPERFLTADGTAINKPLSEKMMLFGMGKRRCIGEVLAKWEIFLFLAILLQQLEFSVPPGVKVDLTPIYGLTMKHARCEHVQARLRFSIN

[14] = target: T3, Corticotropin-releasing factor receptor 2/Corticotropin-releasing factor-binding protein (Homo sapiens, UniProt P24387+Q13324); test: activators of CRF receptor 2 with binding protein – uHTS hits, confirmation (AID 602473); assay type: functional; settings: read-out: EC50_Mean
T3 sequence (Q13324 whole entry): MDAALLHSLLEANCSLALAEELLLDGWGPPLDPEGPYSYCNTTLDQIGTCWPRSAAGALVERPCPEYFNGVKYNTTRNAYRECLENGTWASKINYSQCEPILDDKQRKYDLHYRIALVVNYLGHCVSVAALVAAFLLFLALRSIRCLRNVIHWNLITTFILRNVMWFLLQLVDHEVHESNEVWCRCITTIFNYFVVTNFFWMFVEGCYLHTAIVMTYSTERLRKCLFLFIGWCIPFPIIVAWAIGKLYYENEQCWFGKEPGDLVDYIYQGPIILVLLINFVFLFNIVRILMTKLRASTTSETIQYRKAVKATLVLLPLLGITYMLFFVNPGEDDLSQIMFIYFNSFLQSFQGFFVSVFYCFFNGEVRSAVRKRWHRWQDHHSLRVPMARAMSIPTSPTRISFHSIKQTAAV
T3 sequence (P24387 whole entry): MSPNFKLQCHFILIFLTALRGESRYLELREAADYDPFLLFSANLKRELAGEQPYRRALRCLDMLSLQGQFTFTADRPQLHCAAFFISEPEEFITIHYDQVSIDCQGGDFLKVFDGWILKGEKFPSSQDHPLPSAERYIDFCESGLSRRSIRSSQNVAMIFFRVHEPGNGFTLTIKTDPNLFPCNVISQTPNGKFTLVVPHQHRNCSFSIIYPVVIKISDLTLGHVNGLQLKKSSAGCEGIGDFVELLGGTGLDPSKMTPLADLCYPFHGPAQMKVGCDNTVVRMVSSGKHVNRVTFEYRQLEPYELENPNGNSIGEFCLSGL

[15] = target: T3, Corticotropin-releasing factor receptor 2/Corticotropin-releasing factor-binding protein; test: Dose Response confirmation of uHTS hits for small molecule antagonists of the CRF-binding protein and CRF-R2 receptor complex.; assay type: functional; settings: read-out: IC50_Mean
[16] = HEp-2 cell cytotoxicity, dose response, cytotoxicity control for RSV inhibitor project, HTS (AID 2410); assay type: functional; settings: human respiratory syncytial virus

Cytochrome P450 2C19, sequence (P33261 whole entry): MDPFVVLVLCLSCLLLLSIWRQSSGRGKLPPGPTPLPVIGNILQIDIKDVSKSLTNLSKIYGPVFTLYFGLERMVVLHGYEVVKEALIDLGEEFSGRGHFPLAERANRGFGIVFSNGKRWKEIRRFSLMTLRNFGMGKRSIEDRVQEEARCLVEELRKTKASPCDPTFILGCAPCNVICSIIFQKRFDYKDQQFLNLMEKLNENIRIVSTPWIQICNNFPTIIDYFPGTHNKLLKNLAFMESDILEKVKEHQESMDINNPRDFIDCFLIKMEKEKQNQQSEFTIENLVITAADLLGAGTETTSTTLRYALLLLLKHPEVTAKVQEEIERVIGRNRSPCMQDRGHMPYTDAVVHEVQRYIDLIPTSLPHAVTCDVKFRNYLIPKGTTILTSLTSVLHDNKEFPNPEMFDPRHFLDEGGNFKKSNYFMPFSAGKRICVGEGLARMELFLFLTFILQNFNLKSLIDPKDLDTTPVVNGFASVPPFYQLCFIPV
Cytochrome P450 2C9, sequence (P11712 whole entry): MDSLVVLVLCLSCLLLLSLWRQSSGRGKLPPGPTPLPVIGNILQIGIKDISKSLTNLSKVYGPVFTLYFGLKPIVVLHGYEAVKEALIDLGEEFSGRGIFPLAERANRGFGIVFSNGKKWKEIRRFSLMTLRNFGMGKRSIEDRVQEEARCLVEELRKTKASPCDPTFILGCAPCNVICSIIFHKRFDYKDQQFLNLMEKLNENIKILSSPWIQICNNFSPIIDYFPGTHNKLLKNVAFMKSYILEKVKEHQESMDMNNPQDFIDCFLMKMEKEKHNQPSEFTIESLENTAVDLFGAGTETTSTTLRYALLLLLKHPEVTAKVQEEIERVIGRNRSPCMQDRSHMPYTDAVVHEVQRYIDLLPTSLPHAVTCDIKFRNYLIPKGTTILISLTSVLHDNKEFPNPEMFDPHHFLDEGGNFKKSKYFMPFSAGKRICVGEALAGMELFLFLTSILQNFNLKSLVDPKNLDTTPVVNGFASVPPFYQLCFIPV
Cytochrome P450 3A4, sequence (P08684 whole entry): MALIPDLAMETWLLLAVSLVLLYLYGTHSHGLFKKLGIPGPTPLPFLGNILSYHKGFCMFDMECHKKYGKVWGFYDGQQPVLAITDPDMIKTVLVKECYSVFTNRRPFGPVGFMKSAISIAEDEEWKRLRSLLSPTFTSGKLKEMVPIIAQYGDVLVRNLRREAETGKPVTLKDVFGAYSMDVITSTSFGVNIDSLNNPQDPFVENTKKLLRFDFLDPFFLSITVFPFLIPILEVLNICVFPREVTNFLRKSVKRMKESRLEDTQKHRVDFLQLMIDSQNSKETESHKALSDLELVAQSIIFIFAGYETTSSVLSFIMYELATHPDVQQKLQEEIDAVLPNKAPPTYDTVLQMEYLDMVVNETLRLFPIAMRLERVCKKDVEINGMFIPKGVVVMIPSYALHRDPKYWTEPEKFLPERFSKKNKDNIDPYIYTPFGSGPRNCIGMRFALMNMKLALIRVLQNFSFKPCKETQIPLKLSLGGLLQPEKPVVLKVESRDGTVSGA

Compound: COCCOC(=O)C1=C(C)N=C(C)/C(=C(/O)OCCOC)C1/C=C/c1ccccc1OC (configuration not stated)
- EC50 [1]: 45.7 µM (active)

Compound: CCn1c(SC)nnc1C1CCCN(CC(=O)Nc2ccccc2N2CCOCC2)C1 (configuration not stated)
- EC50 [1]: > 260 µM (inactive)

Compound: Cc1cc(C)nc(OC(=O)c2ccc(Cl)cc2Cl)n1
- EC50 [2]: 11.4 µM (active)
- AC50 [3]: 84.3 µM (active)
- EC50 [4]: > 120 µM (not active)
- EC50 [5]: 10.9 µM (active)

Compound: O=[N+]([O-])c1nn(-c2ccc3c(c2)OCCO3)[n+]([O-])c1NCCC1=CCCCC1
- EC50 [6]: 77.1 µM (active)
- EC50 [7]: > 60 µM (not active)
- EC50 [8]: 0.574 µM (active)
- AC50 [9]: 52.2 µM (active)

Compound: O=C([O-])c1cc(-c2ccccc2)cc(-c2ccccc2)[n+]1Cc1ccccc1
- AC50 [3]: 1.96 µM (active)

Compound: COc1ccccc1CC(=O)O/N=C(\N)c1cccc([N+](=O)[O-])c1
- AC50 [10]: 20 µM (inconclusive)
- AC50 [11]: 31.6 µM (inconclusive)
- AC50 [12]: 22.4 µM (inconclusive)
- AC50 [13]: 25.1 µM (inconclusive)

Compound: Cn1c(C(=O)NCCc2ccccc2)cc(=O)n(C)c1=O
- EC50 [14]: > 53 µM (inactive)
- IC50 [15]: > 47.1 µM (inactive)

Compound: CC(C)(C)CC(C)(C)c1ccc(OCOCCOCCO)c(Cc2cc(C(C)(C)CC(C)(C)C)cc(Cc3cc(C(C)(C)CC(C)(C)C)ccc3OCOCCOCCO)c2OCOCCOCCO)c1
- AC50 [11]: 12.6 µM (inconclusive)

Compound: CCCCCCCC/C=C\CCCCCCCC(N)=O [OLEAMIDE]
- AC50 [10]: 31.6 µM (inconclusive)
- AC50 [11]: 50.1 µM (inconclusive)

Compound: Cc1ccc(N2C(=O)c3sc4nnc(C)c(=O)n4c3C2=O)cc1
- EC50 [14]: > 53 µM (inactive)
- IC50 [15]: > 47.1 µM (inactive)

Compound: CCCSc1nnc2n(N)c(=O)c3ccccc3n12
- AC50 [11]: 28.2 µM (inconclusive)

Compound: N=c1c2c(ncn1CCCO)Oc1ccc3ccccc3c1C2c1ccccc1 (configuration not stated)
- AC50 [3]: 24.4 µM (active)

Compound: CN(CC1CCCO1)S(=O)(=O)c1ccc(C(=O)Nc2nc(-c3ccccn3)cs2)cc1 (configuration not stated)
- AC50 [3]: 2.42 µM (active)

Compound: COc1ccc(NC(=O)Nc2ccc3c(c2)OCO3)c(C)c1
- EC50 [14]: > 53 µM (inactive)
- IC50 [15]: > 47.1 µM (inactive)

Compound: Cc1ccc(OCCOC(=O)Cn2nc(C)c([N+](=O)[O-])c2C)cc1
- EC50 [14]: > 53 µM (inactive)
- IC50 [15]: > 47.1 µM (inactive)

Compound: CCC1CCC2(CC1)SCC(=O)N2c1ccccc1 (configuration not stated)
- EC50 [1]: > 260 µM (inactive)

Compound: COc1ccccc1NC(=O)Nc1nnc(-c2ccco2)s1
- AC50 [11]: 17.8 µM (inconclusive)

Compound: CSc1ccc(CNc2ccccc2)cc1
- AC50 [11]: 35.5 µM (inconclusive)

Compound: O=C(NC(=S)NCCc1ccccn1)c1ccco1
- EC50 [14]: > 53 µM (inactive)
- IC50 [15]: > 47.1 µM (inactive)

Compound: Cc1nnc(NC(=O)c2oc3c(ccc4ccccc43)c2C)s1
- AC50 [11]: 12.6 µM (inconclusive)
- AC50 [12]: 17.8 µM (inconclusive)

Compound: O=C(O)CCn1[nH]c(=O)ccc1=O
- EC50 [1]: > 260 µM (inactive)

Compound: COc1ccc(Cl)cc1NC(=O)CCc1nc(-c2ccccc2F)no1
- EC50 [1]: > 260 µM (inactive)

Compound: Cc1[nH]c2c(ccc3ccccc32)c1C1C(CCN)C1(C)C (configuration not stated)
- EC50 [7]: 13.2 µM (active)
- EC50 [8]: 2.56 µM (active)
- AC50 [3]: 15.1 µM (active)

Compound: O=C(CSc1nnc2c(Cl)cc(C(F)(F)F)cn12)N(Cc1ccccc1)Cc1ccccc1
- EC50 [1]: > 260 µM (inactive)

Compound: Cc1c(/N=C2\SCC(=O)N2/N=C\c2ccc(Br)cc2)c(=O)n(-c2ccccc2)n1C
- EC50 [1]: > 260 µM (inactive)

Compound: Cc1cc(O)c(C2(O)C(=O)Nc3cc(Br)ccc32)cc1C (configuration not stated)
- EC50 [14]: > 53 µM (inactive)
- IC50 [15]: > 47.1 µM (inactive)

Compound: COc1ccc(N2CCN(C(=O)CSc3nnc4c5cc(C)ccc5n(C)c4n3)CC2)cc1
- AC50 [11]: 1.12 µM (inconclusive)
- AC50 [12]: 2.51 µM (inconclusive)
- AC50 [13]: 5.62 µM (inconclusive)

Compound: C=CCN1C(=O)C(Cc2ccc(OCC)cc2)S/C1=N/c1ccc(C(=O)O)cc1 (configuration not stated)
- EC50 [1]: > 260 µM (inactive)

Compound: COc1ccc(C2Nc3ccccc3C(=O)N2NS(=O)(=O)c2ccc(C)cc2)cc1 (configuration not stated)
- EC50 [1]: > 260 µM (inactive)

Compound: CCc1ccc(-c2cc(C(F)(F)F)n3nc(C(=O)Nc4cnn(Cc5ccccc5C)c4)cc3n2)s1
- AC50 [11]: 3.16 µM (inconclusive)

Compound: COCCn1c(=O)c(-c2ccc(Cl)cc2)nc2cnc(Oc3ccccc3)nc21
- AC50 [10]: 39.8 µM (inconclusive)
- AC50 [11]: 25.1 µM (inconclusive)

Compound: Cc1cccc(Cn2cc(/C=C/[N+](=O)[O-])c3ccccc32)c1
- CC50 [16]: 12.7 µM (active)
- AC50 [9]: 3.7 µM (active)

Compound: CCCn1nc(NC(=O)CC(C)C)c2cc3ccccc3nc21
- AC50 [10]: 7.94 µM (inconclusive)
- AC50 [11]: 3.16 µM (inconclusive)

Compound: Cc1nnc(NC(=O)C2CCCN(c3ncccn3)C2)s1 (configuration not stated)
- EC50 [14]: > 53 µM (inactive)
- IC50 [15]: > 47.1 µM (inactive)

Compound: N=c1sc2ccccc2n1CC[S-].c1ccc2c(c1)sc1[n+]2CCS1
- AC50 [11]: 3.16 µM (inconclusive)
- AC50 [12]: 1.58 µM (inconclusive)

Compound: Cc1cc(NC(=O)Cn2cnc3sc(C)c(-c4ccccc4)c3c2=O)no1
- EC50 [1]: > 260 µM (inactive)

Compound: CCN(CCCNC(=O)COc1cc(=O)n(C)c2ccccc12)c1cccc(C)c1
- EC50 [1]: > 260 µM (inactive)

Compound: O=C(CCCN1CCC2(CC1)C(=O)N(Cc1cccc(F)c1)CN2c1ccccc1)c1ccc(F)cc1
- AC50 [10]: 7.94 µM (inconclusive)
- AC50 [11]: 31.6 µM (inconclusive)
- AC50 [13]: 39.8 µM (inconclusive)

Compound: COc1ccc(-n2ncc(C(C)NS(=O)(=O)c3cc(C)sc3C)c2C)cc1 (configuration not stated)
- EC50 [14]: > 53 µM (inactive)
- IC50 [15]: > 47.1 µM (inactive)

Compound: Cc1cccc(C)c1OCC(=O)Nc1oc(-c2ccccc2)c(-c2ccccc2)c1C#N
- EC50 [14]: > 53 µM (inactive)
- IC50 [15]: > 47.1 µM (inactive)

Compound: COc1ccc2c(OC)c3ccoc3nc2c1OC [SKIMMIANINE]
- AC50 [11]: 7.94 µM (inconclusive)

Compound: Cc1ccccc1Cn1nc(C)c(NC(=O)C2c3ccccc3Oc3ccccc32)c1C
- EC50 [1]: > 260 µM (inactive)
